The values that follow come from patent US8728442B2, “Method of controlling the growth of microorganisms by a composition containing isolated or in vitro synthesized nitrosoamides” (Bayer CropScience LP, priority 2009, dated 2014).

Experiment [1] has as its system Penicillium expansum. Briefly: Fungicidal activity, fumigation of Penicillium expansum spore plates in sealed 6 L containers. Format: cell-based. The conditions noted are these: 24 h exposure, further 48 h incubation; for MIC: Penicillium expansum, 24 h. Here is the method:
Experiments were conducted to determine the fungicidal activity of several compounds of the invention using Penicillium expansum as the test organism.
Plates of potato dextrose agar were streaked with a standard culture of Penicillium expansum spores (0.1 ml of a 2×10^5 cfu/ml) and placed in sealed plastic containers (nominal volume 6 liters). The containers (Rubbermaid) were fitted with a small fan (Radio Shack 12VDC) in the lids to ensure good distribution of the test compounds. The plates were exposed to different volumes (2.5 μl, 5 μl, 10 μl, 20 μl, 40 μl, 80 μl, or 120 μl) of standard solutions (1.0 to 4.0 mg/ml) of tested compounds in ethanol, under ambient conditions. After exposing for 24 h, the plates were removed and incubated for a further 48 h, at ambient temperature, and then monitored for growth of the test organism by visual observation.
The following tables provide summary results of three separate studies to determine the minimum amounts of the compounds needed to produce 100% inhibition of growth of the test organism. Results are expressed as minimal volumes (μl/6 L) and amounts (μg/L) required to produce 100% inhibition.

Experiment [2] relates to Staphylococcus aureus (MRSA) (ATCC 33591). Briefly: MIC and MBC of Compound 1 and analogs, macrodilution. To be noted: for MIC: 19 h; for MBC: 25 h.
[3] abbreviates: Experiment #4, read-out: Amount for 100% inhibition (μg compound/L air).
Where [4] appears, read: Experiment #6, read-out: Amount for 100% inhibition (μg compound/L air).
The mark [5] stands for this setting: Experiment #5, read-out: Amount for 100% inhibition (μg compound/L air).
The mark [6] stands for this setting: Experiment #1, read-out: Amount for 100% inhibition (μg compound/L air).
Setting [7] is: Experiment #2, read-out: Amount for 100% inhibition (μg compound/L air).
Where [8] appears, read: Experiment #3, read-out: Amount for 100% inhibition (μg compound/L air).
The mark [9] stands for this setting: read-out: Amount for 100% inhibition (μg compound/L air), Experiment #1.

The structures appear in SMILES notation. ≈ marks a conversion by molar mass, not a printed value. Read-outs that look alike come from different tables or passages of the source.

Turning to `CCCCCC(=O)N(C)N=O` [Compound 2, N-methyl-N-nitrosohexanamide], the MIC in experiment [1] (setting [3]) was determined as 0.0043 µg/mL (≈ 0.0272 µM). As to `CN(N=O)C(=O)CC1CC1` [Compound 3, 2-cyclopropyl-N-methyl-N-nitrosoacetamide], the MIC in experiment [1] (setting [4]) is 0.005 µg/mL (≈ 0.0352 µM). Regarding `C=CC(=O)N(C)N=O` [Compound 4, N-methyl-N-nitrosoacrylamide], the MIC in experiment [1] (setting [5]) came out at 0.0011 µg/mL (≈ 0.00964 µM).

For the compound `CN(N=O)C(=O)C1CCC1` [Compound 5, N-methyl-N-nitrosocyclobutanecarboxamide], in experiment [1] (setting [5]), the MIC was determined as 0.0012 µg/mL (≈ 0.00844 µM). Consider `COCC(=O)N(C)N=O` [Compound 6, 2-methoxy-N-methyl-N-nitrosoacetamide], for which the MIC in experiment [1] (setting [4]) was found to be 0.0022 µg/mL (≈ 0.0167 µM). Regarding `CN(N=O)C(=O)C1CC1` [Compound 7, N-methyl-N-nitrosocyclopropanecarboxamide], the MIC was found to be 0.0101 µg/mL (≈ 0.0788 µM) in experiment [1] (setting [6]), 0.01 µg/mL (≈ 0.078 µM) in experiment [1] (setting [7]) and 0.0082 µg/mL (≈ 0.064 µM) in experiment [1] (setting [8]). Turning to `C/C=C/C(=O)N(C)N=O` [Compound 8, (2E)-N-methyl-N-nitrosobut-2-enamide], the MIC in experiment [1] (setting [5]) came to 0.0075 µg/mL (≈ 0.0585 µM). With `CCCCCCC(=O)N(C)N=O` [Compound 9, N-methyl-N-nitrosoheptanamide], the MIC in experiment [1] (setting [3]) amounted to 0.0075 µg/mL (≈ 0.0435 µM).

In the case of `CC(C)C(=O)N(C)N=O` [Compound 10, N-methyl-N-nitrosisopropanamide], the “Amount for 100% inhibition (μg compound/L air)” value in experiment [1] (Experiment #4) is listed as >14.4 μg compound/L air. On to `CCN(N=O)C(=O)C(C)C` [Compound 11, N-ethyl-N-nitrosoisobutyramide], for which the MIC in experiment [1] (setting [4]) is > 0.0147 µg/mL. As for `CCCN(N=O)C(C)=O` [Compound 12, N-nitroso-N-propylacetamide], in experiment [1] (setting [9]), the MIC is 0.0252 µg/mL (≈ 0.194 µM). Take `CCCC(=O)N(C)N=O` [Compound 13, N-methyl-N-nitrosobutyramide]: the MIC stood at 0.0092 µg/mL (≈ 0.0707 µM) in experiment [1] (setting [6]), 0.0071 µg/mL (≈ 0.0546 µM) in experiment [1] (setting [7]) and 0.0075 µg/mL (≈ 0.0576 µM) in experiment [1] (setting [8]). Turning to `CC(=O)N(N=O)C1CC1` [Compound 14, N-cyclopropyl-N-nitrosoacetamide], the MIC in experiment [1] (setting [6]) was found to be 0.0278 µg/mL (≈ 0.217 µM).

Turning to `CC(=O)N(N=O)C(C)C` [Compound 16, N-isopropyl-N-nitrosoacetamide], the values for the MIC in experiment [1] (setting [7]) and in experiment [1] (setting [9]) were > 0.0806 µg/mL and 0.025 µg/mL (≈ 0.192 µM), respectively.

Consider `O=NN1CCCCC1=O` [Compound 17, 1-nitrosopiperidine-2-one], for which the MIC in experiment [1] (setting [8]) was > 0.0036 µg/mL. Consider `O=NN1CCCC1=O` [Compound 18, 1-nitrosopyrrolidin-2-one], for which the values for the MIC in experiment [1] (setting [7]) and in experiment [1] (setting [4]) were > 0.084 µg/mL and > 0.0163 µg/mL, respectively.

As for `CC(C)CC(=O)N(C)N=O` [Compound 19, N-3-dimethyl-N-nitrosobutanamide], the “Amount for 100% inhibition (μg compound/L air)” value in experiment [1] (Experiment #5) is >15.5 μg compound/L air.

Turning to `CCC(=O)N(C)N=O` [Compound 20, N-methyl-N-nitrosopropanamide], the MIC in experiment [1] (setting [3]) came out at 0.0075 µg/mL (≈ 0.0646 µM).

In the case of `CCCCC(=O)N(C)N=O` [Compound 21, N-methyl-N-nitrosopentanamide], the MIC in experiment [1] (setting [3]) is 0.0163 µg/mL (≈ 0.113 µM). For `CCC(C)C(=O)N(C)N=O` (centres unmarked) [Compound 22, N,2-dimethyl-N-nitrosobutanamide], the MIC in experiment [1] (setting [5]) was > 0.0152 µg/mL.

By MBC is commonly meant the smallest concentration meeting the test's criterion for killing. In the case of `COCC(=O)N(C)N=O` [drawing 50], in experiment [2], the MIC came to 25 µg/mL and the MBC was > 50 µg/mL.

`C=CC(=O)N(C)N=O` [drawing 51]: in experiment [2], the MIC was > 50 µg/mL and the MBC was > 50 µg/mL. For the compound `C/C=C/C(=O)N(C)N=O` [drawing 52], in experiment [2], the MIC amounted to 6.25 µg/mL and the MBC was determined as 25 µg/mL. For `CCC(=O)N(C)N=O` [drawing 53] the same measures were 12.5 µg/mL and 25 µg/mL.

Take `CCCCCCC(=O)N(C)N=O` [drawing 54]: in experiment [2], the MIC was 6.25 µg/mL and the MBC is 25 µg/mL. As for `CC(C)CC(=O)N(C)N=O` [drawing 55], in experiment [2], the MIC is 0.78 µg/mL and the MBC came out at 25 µg/mL.
